7 compounds from ChEMBL document CHEMBL4842386, “Discovery of Reldesemtiv, a Fast Skeletal Muscle Troponin Activator for the Treatment of Impaired Muscle Function” (J Med Chem, 2021) can be followed below.

Data set [1] has as its system Psoas muscle. As to the kind of experiment: Increase in psoas muscle force in rabbit skinned single fiber preparation at a calcium concentration that produces a force increase that is 25% of the maximum response in a control preparation by skinned fast skeletal muscle fiber assay. The note with it: Oryctolagus cuniculus. It is filed as functional.
The subject of data set [2] is Psoas muscle. As to the kind of experiment: Activation of fast twitch skeletal muscle in rabbit psoas muscle myofibrils by measuring increase in myofibril ATPase activity at 25% calcium concentration. It is filed as functional. Conditions: Oryctolagus cuniculus.
Data set [3] in a line: Metabolic stability in human liver microsomes assessed as intrinsic clearance measured after 90 mins by HPLC/MS/MS analysis. It is filed as ADME, Microsome. Conditions: read-out: CLH. In general terms: Liver microsomes are a subcellular fraction often used to study metabolism.
The target of data set [4] is T1, Nuclear receptor subfamily 1 group I member 2 (Homo sapiens, UniProt O75469).
T1 sequence (O75469 whole entry): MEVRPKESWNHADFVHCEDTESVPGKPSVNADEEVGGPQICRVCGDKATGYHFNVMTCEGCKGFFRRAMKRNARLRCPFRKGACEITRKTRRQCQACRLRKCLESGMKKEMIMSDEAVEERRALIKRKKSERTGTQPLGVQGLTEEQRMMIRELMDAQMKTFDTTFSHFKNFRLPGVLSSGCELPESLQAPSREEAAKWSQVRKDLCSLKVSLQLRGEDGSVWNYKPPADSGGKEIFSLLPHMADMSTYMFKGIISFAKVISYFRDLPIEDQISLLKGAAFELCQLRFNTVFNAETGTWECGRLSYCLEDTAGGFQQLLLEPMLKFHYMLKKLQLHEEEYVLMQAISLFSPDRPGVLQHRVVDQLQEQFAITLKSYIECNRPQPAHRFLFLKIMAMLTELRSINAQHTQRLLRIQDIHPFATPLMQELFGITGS
As to the kind of experiment: Transactivation of human PXR transfected in DPX2 cells assessed as CYP3A4 induction at 10 uM by luciferase reporter gene assay. It is filed as ADME, cell-based. Conditions: dpx2, 10 µM. Background: In a reporter assay the amount or activity of a reporter protein is the signal.

The next data set deals with hERG (KCNH2) (Homo sapiens, UniProt Q12809). The data set can be described thus: Displacement of [3H]astemizole from human ERG expressed in HEK293 cells at 100 uM relative to control. The note with it: HEK293 cells that express hERG, probe [3H]astemizole. It is filed as cell-based.
Data set [5] addresses Voltage-gated inwardly rectifying potassium channel KCNH2 (Homo sapiens, UniProt Q12809). The data set can be described thus: Inhibition of human ERG expressed in HEK293 cells at -80 mV holding potential by patch clamp assay. It is filed as cell-based.
Data set [6] can be described thus: Plasma protein binding in male rat assessed as unbound fraction. It is filed as ADME, cell-free.
The nature of data set [7]: Clearance in male Sprague-Dawley rat at 1 mg/kg, po administered as single dose measured up to 24 hrs by HPLC analysis. It is filed as ADME, organism-based. Conditions: in vivo.
A short description of data set [8]: Volume of distribution at steady state in male Sprague-Dawley rat at 1 mg/kg, po administered as single dose measured up to 24 hrs by HPLC analysis. It is filed as ADME, organism-based. Conditions: in vivo.
Data set [9] can be described thus: Metabolic stability in male rat liver microsomes assessed as intrinsic clearance measured after 90 mins by HPLC/MS/MS analysis. Conditions: read-out: CLH. It is filed as ADME, Microsome.
Data set [10] in a line: Intrinsic clearance in male rat hepatocytes. It is filed as ADME, cell-based, Hepatocyte. Conditions: read-out: CLH.
Data set [11] in a line: Thermodynamic solubility of the compound. It is filed as physicochemical. Conditions: read-out: Therm_solubility.
For data set [12], the system named is Extensor digitorum longus. The data set can be described thus: Increase in muscle tension in rat extensor digitorum longus muscle rat model assessed as free plasma concentration to increase muscle tension at subtetanic nerve stimulation rate of 30 Hz. It is filed as functional, tissue-based.
A short description of data set [13]: Drug distribution in Sprague-Dawley rat brain to blood ratio at 100 mg/kg, po by HPLC analysis. It is filed as ADME, organism-based.
Data set [14] is described as follows: Drug distribution in Sprague-Dawley rat Soleus muscle to blood ratio at 100 mg/kg, po by HPLC analysis. It is filed as ADME, organism-based.
Data set [15] can be described thus: Drug distribution in Sprague-Dawley rat plasma to blood ratio at 100 mg/kg, po by HPLC analysis. It is filed as ADME, organism-based. Conditions: in vivo.
Data set [16] in a line: Efflux ratio of apparent permeability in human Caco-2 cells. It is filed as ADME, cell-based. (In general: Caco-2 cells form a polarised layer with tight junctions and transporters.)
Data set [17] is described as follows: Drug distribution in Sprague-Dawley rat extensor digitorum longus to blood ratio at 100 mg/kg, po by HPLC analysis. It is filed as ADME, organism-based.
The nature of data set [18]: Clearance in male Sprague-Dawley rat at 3 mg/kg, po administered as single dose measured up to 24 hrs by HPLC analysis. It is filed as ADME, organism-based. Conditions: in vivo.
Data set [19] can be described thus: Volume of distribution at steady state in male Sprague-Dawley rat at 3 mg/kg, po administered as single dose measured up to 24 hrs by HPLC analysis. It is filed as ADME, organism-based. The note with it: in vivo.

Chain of hERG (KCNH2) (Q12809 whole entry): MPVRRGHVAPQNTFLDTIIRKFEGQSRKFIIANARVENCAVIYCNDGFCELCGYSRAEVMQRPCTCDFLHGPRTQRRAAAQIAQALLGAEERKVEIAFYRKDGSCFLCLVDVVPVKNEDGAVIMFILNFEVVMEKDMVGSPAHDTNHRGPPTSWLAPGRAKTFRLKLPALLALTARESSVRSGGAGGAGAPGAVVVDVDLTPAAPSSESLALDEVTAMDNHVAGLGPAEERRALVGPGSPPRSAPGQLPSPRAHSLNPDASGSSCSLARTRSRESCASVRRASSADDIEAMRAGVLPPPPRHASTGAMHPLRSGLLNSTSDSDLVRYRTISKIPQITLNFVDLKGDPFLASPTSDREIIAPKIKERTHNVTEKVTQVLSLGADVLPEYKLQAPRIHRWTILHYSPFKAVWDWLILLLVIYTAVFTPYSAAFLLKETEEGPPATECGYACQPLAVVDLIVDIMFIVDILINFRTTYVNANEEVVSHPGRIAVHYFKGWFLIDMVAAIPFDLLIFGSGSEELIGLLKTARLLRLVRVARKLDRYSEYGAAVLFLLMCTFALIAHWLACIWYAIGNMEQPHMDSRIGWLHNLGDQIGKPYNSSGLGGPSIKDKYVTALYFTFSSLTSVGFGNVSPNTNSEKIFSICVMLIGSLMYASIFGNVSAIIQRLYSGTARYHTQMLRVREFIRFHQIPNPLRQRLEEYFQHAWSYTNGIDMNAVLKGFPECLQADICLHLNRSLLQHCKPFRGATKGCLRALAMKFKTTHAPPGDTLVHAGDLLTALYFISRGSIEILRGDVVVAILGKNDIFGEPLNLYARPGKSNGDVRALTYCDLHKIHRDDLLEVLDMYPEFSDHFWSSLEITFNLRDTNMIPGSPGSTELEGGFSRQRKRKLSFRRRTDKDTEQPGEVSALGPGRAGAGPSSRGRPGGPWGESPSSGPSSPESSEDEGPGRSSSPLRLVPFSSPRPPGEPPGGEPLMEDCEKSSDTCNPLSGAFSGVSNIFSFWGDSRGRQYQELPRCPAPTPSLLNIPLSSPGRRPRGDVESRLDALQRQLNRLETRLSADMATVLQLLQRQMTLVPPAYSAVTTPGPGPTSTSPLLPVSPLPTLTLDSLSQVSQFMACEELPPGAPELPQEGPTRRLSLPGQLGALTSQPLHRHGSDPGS
Chain of Voltage-gated inwardly rectifying potassium channel KCNH2 (Q12809 whole entry): as above

In general, EC30 refers to the concentration at which the effect reaches the 30% level. The term inhibition denotes the change of the read-out against control, counted positive when it falls. A lower inhibition goes with little suppression. What is called IC50 is the concentration needed to halve the response being measured. For orientation: fraction unbound means the share of the substance not bound to proteins or other matrix. A word on the CL/F: it is the apparent clearance, not corrected for the fraction that reaches the circulation. As to `NC(=O)c1ccn(-c2ccc(NCC3(c4ncccc4F)CCC3)nn2)c1`, in the data set on Psoas muscle [1], the 30% effect concentration (EC30) was found to be 1100 nM. In addition, the EC40 in the data set with Psoas muscle [2] stood at 900 nM. The CLint scaled in data set [3] is below 14 mL/min/kg; in data set [9], 26 mL/min/kg; in [10], 207 mL/min/kg. Further, the Activity in [4] was 43%. Besides, the inhibition at 100 µM at hERG (KCNH2) is 27%. The compound also had an IC50 in data set [5] of 97000 nM. Moreover, in [6], the unbound share (fraction unbound) amounted to 0.35. In addition, in data set [7], the CL/F turned out to be 73 mL/min/kg. Also, in [8], the Vdss stood at 2.4 L/kg.

As to `CC(CNc1nc(Cc2ccc(F)cc2)ns1)c1ccc(Cl)cc1` (configuration not stated), the EC30 in the data set on Psoas muscle [1] was 16700 nM. For the same compound, the EC40 with Psoas muscle [2] was determined as 1100 nM. The solubility thermodynamic in data set [11] is below 27 µM.

As to `NC(=O)c1cnn(-c2ccc(NC[C@]3(c4ncccc4F)C[C@H](F)C3)nn2)c1`, in the data set on Psoas muscle [1], the EC30 was found to be 1100 nM. In the data set with Psoas muscle [2], the EC40 was 800 nM. Also, the CLint scaled in data set [3] was below 14 mL/min/kg; in data set [9], 30 mL/min/kg; in data set [10], 90 mL/min/kg. Also, in data set [4], the Activity was determined as 7%. In addition, at hERG (KCNH2), the inhibition at 100 µM worked out at 16%. Also, the fraction unbound in data set [6] came to 0.55. The compound further came in with a CL/F in [7] of 115 mL/min/kg. The Vdss in data set [8] came out at 2.6 L/kg.

In general, EC50 refers to the concentration giving half of the maximal effect. What is called Kp is tissue or fluid exposure divided by exposure in the circulation. As a reminder, the efflux ratio is a quotient of directional permeabilities that is used to spot active efflux. Turning to `C#Cc1cnc2nc(O)n(C(CC)CC)c2n1` [TIRASEMTIV], the EC50 in data set [12] came out at 6000 nM. Also, in data set [6], the fraction unbound was 0.05. The Kp in data set [13] was determined as 0.27; in data set [14] it was 0.3. Besides, the Ratio in data set [15] is on record as 1.62. For the same compound, the efflux ratio in data set [16] came to 0.9.

In the case of `CNC(=O)c1cccc(-c2cnc(NC[C@]3(c4ncccc4F)C[C@H](F)C3)nc2)c1`, the EC30 with Psoas muscle [1] stood at 500 nM. Moreover, the EC40 in the data set on Psoas muscle [2] is 900 nM. Also, the CLint scaled in data set [3] is below 7 mL/min/kg; in data set [9], 14 mL/min/kg; in data set [10], below 32 mL/min/kg. The Activity in data set [4] amounted to 31%. Also, the inhibition at 100 µM on hERG (KCNH2) is 42%. Moreover, the fraction unbound in [6] came to 0.27. For the same compound, the values for the Kp in [13], in data set [14] and in data set [17] were 0.027, 0.53 and 0.54, respectively. In data set [15], the Ratio is given as 1.15. In addition, the efflux ratio in data set [16] was 10. Moreover, the CL/F in [18] stood at 52 mL/min/kg. Besides, the Vdss in [19] amounted to 2.6 L/kg.

As for `NC(=O)c1ccn(-c2cnc(NCC3(c4ncccc4F)CCC3)nc2)c1`, the EC30 in the data set on Psoas muscle [1] stood at 1400 nM. In addition, in the data set on Psoas muscle [2], the EC40 is 1300 nM. The CLint scaled in [3] is below 14 mL/min/kg. On hERG (KCNH2), this compound displayed an inhibition at 100 µM of 43%.

For `NC(=O)c1cnc(-c2ccc(NCC3(c4ncccc4F)CCC3)nn2)s1`, the EC30 with Psoas muscle [1] stood at 400 nM. Moreover, in the data set with Psoas muscle [2], the EC40 was found to be 100 nM. The compound further showed a half-inhibitory concentration (IC50) in data set [5] above 100000 nM.
